What was measured:
[1] = antimigration efficacy of additional thiazole compounds (Table 3); format: cell-based; conditions: cell line not given; read-out: IC50 (anti-migration)
From the text: (§1) The additional thiazole compounds were synthesized and tested for antimigration efficacy and cytotoxicity, with results shown in TABLE 3.

[2] = cytotoxicity of additional thiazole compounds (Table 3); format: cell-based; conditions: cell line not given
From the text: as §1

Row | Structure (SMILES) | IC50 [1] [nM] | Cytotoxicity (Survival at 1 μM) [2] [%]
1 | Cc1ccc(-c2csc(=NS(=O)(=O)c3ccccc3)n2C)c(C)c1 [Compound 11, N-(4-(2,4-Dimethylphenyl)-3-methylthiazol-2(3H)-ylidene)benzenesulfonamide] | 1460 | 92.4
2 | CN(C(=O)c1ccccc1)c1nc(-c2ccc(Br)cc2)cs1 [Compound 16c, N-(4-(4-Bromophenyl)thiazol-2-yl)-N-methylbenzamide] | 317 | 65.4
3 | COc1cccc(C(=O)N=c2scc(-c3cc(OC)c(OC)c(OC)c3)n2C)c1 [Compound 15m, 3-Methoxy-N-(3-methyl-4-(3,4,5-trimethoxyphenyl)thiazol-2(3H)-ylidene)benzamide] | > 50000 | 103.5
4 | O=C(Nc1nc(-c2cccc(Cl)c2)cs1)c1ccccc1 [Compound 14e, N-(4-(3-Chlorophenyl)thiazol-2-yl)benzamide] | 123 | 71.4
5 | Cc1sc(N(C)C(=O)c2ccccc2)nc1-c1ccc(F)cc1 [Compound 16e, N-(4-(4-Fluorophenyl)-5-methylthiazol-2-yl)-N-methylbenzamide] | 1620 | 107.6
6 | CCCCCCCCCCCCn1c(-c2ccc(C)cc2C)csc1=NC(=O)c1ccccc1 [Compound 5p, N-(4-(2,4-Dimethylphenyl)-3-dodecylthiazol-2(3H)-ylidene)benzamide] | 32 | 109.5
7 | CCn1c(-c2ccc(C)cc2C)csc1=NC(=O)c1ccccc1 [Compound 5l, N-(4-(2,4-Dimethylphenyl)-3-ethylthiazol-2(3H)-ylidene)benzamide] | 5560 | 141.8
8 | C=CCn1c(-c2ccc(C)cc2C)csc1=NC(=O)c1ccccc1 [Compound 5q, N-(3-Allyl-4-(2,4-dimethylphenyl)thiazol-2(3H)-ylidene)benzamide] | 242 | 115.3
9 | COc1ccc(C(=O)N(C)c2nc(-c3cc(OC)c(OC)c(OC)c3)cs2)cc1OC [Compound 16h, 3,4-Dimethoxy-N-methyl-N-(4-(3,4,5-trimethoxyphenyl)thiazol-2-yl)benzamide] | > 25000 | 101.9
10 | COc1ccc(C(=O)N(C)c2nc(-c3cc(OC)c(OC)c(OC)c3)cs2)c(OC)c1 [Compound 16i, 2,4-Dimethoxy-N-methyl-N-(4-(3,4,5-trimethoxyphenyl)thiazol-2-yl)benzamide] | 5040 | 118.5
11 | Cc1sc(NC(=O)c2ccccc2)nc1-c1ccccc1 [Compound 14h, N-(5-Methyl-4-phenylthiazol-2-yl)benzamide] | > 25000 | 99.0
12 | O=C(Nc1nc(-c2ccccc2Cl)cs1)c1ccccc1 [Compound 14b, N-(4-(2-Chlorophenyl)thiazol-2-yl)benzamide] | 15000 | 102.4
13 | COc1cc(C(=O)/N=c2/scc(-c3cc(OC)c(OC)c(OC)c3)n2C)cc(OC)c1OC [Compound 15o, 3,4,5-Trimethoxy-N-(3-methyl-4-(3,4,5-trimethoxyphenyl)thiazol-2(3H)-ylidene) benzamide] | 1960 | 81.5
14 | Cn1c(C2CC2)csc1=NC(=O)c1ccccc1 [Compound 15n, N-(4-Cyclopropyl-3-methylthiazol-2(3H)-ylidene)benzamide] | 104 | 90.7
15 | CCCn1c(-c2ccc(C)cc2C)csc1=NC(=O)c1ccccc1 [Compound 5m, N-(4-(2,4-Dimethylphenyl)-3-propylthiazol-2(3H)-ylidene)benzamide] | 176 | 85.0
16 | COc1cc(-c2cs/c(=N/C(=O)c3ccccc3)n2C)cc(OC)c1OC [Compound 15g, N-(4-(3,4,5-Trimethoxyphenyl)-3-methylthiazol-2(3H)-yliene)-benzamide] | 1070 | 88.4
17 | COc1ccc(C(=O)Nc2nc(-c3cc(OC)c(OC)c(OC)c3)cs2)cc1OC [Compound 14m, 3,4-Dimethoxy-N-(4-(3,4,5-trimethoxyphenyl)thiazol-2-yl)benzamide] | > 25000 | 87.3
18 | CCN(C(=O)c1ccccc1)c1nc(-c2ccccc2)cs1 [Compound 7a, N-Ethyl-N-(4-phenylthiazol-2-yl)benzamide] | 565 | 68.5
19 | Cn1c(-c2cccc(Br)c2)csc1=NC(=O)c1ccccc1 [Compound 15c, N-(4-(3-Bromophenyl)-3-methylthiazol-2(3H)-ylidene)benzamide] | 300 | 94.4
20 | CN(C(=O)c1ccccc1)c1nc(-c2ccccc2Cl)cs1 [Compound 16a, N-(4-(2-Chlorophenyl)thiazol-2-yl)-N-methylbenzamide] | 41.6 | 88.9
21 | Cc1ccc(-c2cn(C)/c(=N\C(=O)c3ccccc3)s2)cc1 [Compound 15j, N-(3-Methyl-5-(p-toyl)thiazol-2(3H)-ylidene)benzamide] | > 25000 | 112.6

Row | Structure (SMILES) | IC50 [1] [nM] | Cytotoxicity (Survival at 1 μM) [2] [%]
22 | Cc1ccc(-c2csc(NS(=O)(=O)c3ccccc3)n2)c(C)c1 [Compound 10, N-(4-(2,4-Dimethylphenyl)thiazol-2-yl)benzenesulfonamide] | 11000 | 137.4
23 | COc1cc(-c2csc(=NC(=O)c3ccc(Cl)cc3)n2C)cc(OC)c1OC [Compound 15l, 4-Chloro-N-(3-methyl-4-(3,4,5-trimethoxyphenyl)thiazol-2(3H)-ylidene)benzamide] | 758 | 77.6
24 | C=CCn1c(-c2ccccc2)csc1=NC(=O)c1ccccc1 [Compound 7c, N-(3-Allyl-4-phenylthiazol-2(3H)-ylidene)benzamide] | 24.3 | 64.8
25 | Cc1sc(=NC(=O)c2ccccc2)n(C)c1-c1ccccc1 [Compound 15h, N-(3,5-Dimethyl-4-phenylthiazol-2(3H)-ylidene)benzamide] | 197 | 68.4
26 | CCCn1c(-c2ccccc2)csc1=NC(=O)c1ccccc1 [Compound 7b, N-(4-Phenyl-3-propylthiazol-2(3H)-ylidene)benzamide] | 432 | 100.0
27 | COc1ccccc1C(=O)N(C)c1nc(-c2cc(OC)c(OC)c(OC)c2)cs1 [Compound 16l, 2-Methoxy-N-methyl-N-(4-(3,4,5-trimethoxyphenyl)thiazol-2-yl)benzamide] | > 25000 | 109.3
28 | Cc1csc(=NC(=O)c2ccccc2)n1C [Compound 15a, N-(3,4-Dimethylthiazol-2(3H)-ylidene)benzamide] | 15000 | 102.6
29 | COc1cc(-c2csc(NC(=O)c3ccccc3)n2)cc(OC)c1OC [Compound 14g, N-(4-(3,4,5-Trimethoxyphenyl)thiazol-2-yl)benzamide] | > 50000 | 95.0
30 | Cn1c(-c2ccccc2Cl)csc1=NC(=O)c1ccccc1 [Compound 15b, N-(4-(2-Chlorophenyl)-3-methylthiazol-2(3H)-ylidene)benzamide] | 268 | 72.2
31 | Cc1sc(=NC(=O)c2ccccc2)n(C)c1-c1ccc(F)cc1 [Compound 15i, N-(4-(4-Fluorophenyl)-3,5-dimethylthiazol-2(3H)-ylidene)benzamide] | 847 | 83.8
32 | COc1cc(C(=O)N(C)c2nc(-c3cc(OC)c(OC)c(OC)c3)cs2)cc(OC)c1OC [Compound 16j, 3,4,5-Trimethoxy-N-methyl-N-(4-(3,4,5-trimethoxyphenyl)thiazol-2-yl)benzamide] | 470 | 114.8
33 | COc1ccc(C(=O)N(C)c2nc(-c3cc(OC)c(OC)c(OC)c3)cs2)cc1 [Compound 16g, 4-Methoxy-N-methyl-N-(4-(3,4,5-trimethoxyphenyl)thiazol-2-yl)benzamide] | 312 | 100.0
34 | CN(C(=O)c1ccccc1)c1nc(-c2cccc(Br)c2)cs1 [Compound 16b, N-(4-(3-Bromophenyl)thiazol-2-yl)-N-methylbenzamide] | 437 | 104.4
35 | CCn1c(-c2ccccc2)csc1=NC(=O)c1ccccc1 [Compound 8a, N-(4-phenyl-3-ethylthiazol-2(3H)-ylidene)benzamide] | 883 | 128.9
36 | CCCCn1c(-c2ccc(C)cc2C)csc1=NC(=O)c1ccccc1 [Compound 5n, N-(3-Butyl-4-(2,4-dimethylphenyl)thiazol-2(3H)-ylidene)benzamide] | 333 | 70.4
37 | COc1cccc(C(=O)Nc2nc(-c3cc(OC)c(OC)c(OC)c3)cs2)c1 [Compound 14r, 3-Methoxy-N-(4-(3,4,5-trimethoxyphenyl)thiazol-2-yl)benzamide] | 14000 | 92.6
38 | COc1cc(-c2csc(NC(=O)c3ccc(Cl)cc3)n2)cc(OC)c1OC [Compound 14l, 4-Chloro-N-(4-(3,4,5-trimethoxyphenyl)thiazol-2-yl)benzamide] | > 25000 | 85.6
39 | Cc1ccc(-c2cnc(N(C)C(=O)c3ccccc3)s2)cc1 [Compound 16f, N-Methyl-N-(5-(p-tolyl)thiazol-2-yl)benzamide] | 1090 | 59.3
40 | COc1ccc(C(=O)Nc2nc(-c3cc(OC)c(OC)c(OC)c3)cs2)c(OC)c1 [Compound 14n, 2,4-Dimethoxy-N-(4-(3,4,5-trimethoxyphenyl)thiazol-2-yl)benzamide] | > 50000 | 93.8
41 | C#CCN(C(=O)c1ccccc1)c1nc(-c2ccc(C)cc2C)cs1 [Compound 6, N-(4-(2,4-Dimethylphenyl)thiazol-2-yl)-N-(prop-2-yn-1-yl)benzamide] |  | 106.4
